These molecules were tested against Cbl-b protein and UbcH5B-Ub (Homo sapiens (Human), UniProt Q13191) (assay: Cbl-b activity assay (HTRF, interaction between Cbl-b protein and UbcH5B-Ub)). Settings: inhibition of interaction between Biotin-Cbl-b protein and Eu-Ubquitin-UbcH5B, HTRF signal 665 nm/615 nm.
Type: biochemical
Procedure: Experiment purpose: Testing of inhibitory activity of compounds on the interaction between Cbl-b protein and UbcH5B-Ub
Experimental method: Eu-Ubquitin-UbcH5B was prepared by incubating Eu-Ubquitin (Cisbio) with UbcH5B (ENZO), E1 (ENZO) at 37° C. for 4 hours. Eu-Ubquitin-UbcH5B was aliquoted and stored at −80° C. Cbl-b activity assay was performed in 384-well plates (Perkin Elmer). 100 nL of 3-fold serial dilutions of compounds (final concentration 10 μM-0.5 nM, starting concentration 10 μM, 3-fold dilution, 10 points, 10th point being 0.5 nM) and 5 μL of 50 nM Biotin-Cbl-b protein (Sigma) were incubated for 1 hour at room temperature, and the reaction buffer was 50 mM HEPES pH 7.0 (Gibco), 100 mM NaCl (Sigma), 0.01% Triton X-100 (Sigma), 0.01% BSA (Sigma) and 1 mM DTT (Invitrogen). 5 μL of Src mixed solution (40 nM Src (R&D), 2 mM ATP (Sigma), 10 mM MgCl2 (Sigma)) was added to the reaction plate and incubated at room temperature for 3 hours. 10 μL of detection solution (12.5 nM Strepdividin-XL665 (Cisbio), 500 nM Eu-Ubquitin-UbcH5B, […] (Invitrogen), 0.004% BSA (Sigma)) was added to the reaction plate, incubated overnight at room temperature, and the HTRF signal (665 nm/615 nm) was read on Envision (Perkin Elmer). IC50 was calculated using IDBS XLfit.

Chain of Cbl-b protein and UbcH5B-Ub (Q13191 whole entry, species assumed): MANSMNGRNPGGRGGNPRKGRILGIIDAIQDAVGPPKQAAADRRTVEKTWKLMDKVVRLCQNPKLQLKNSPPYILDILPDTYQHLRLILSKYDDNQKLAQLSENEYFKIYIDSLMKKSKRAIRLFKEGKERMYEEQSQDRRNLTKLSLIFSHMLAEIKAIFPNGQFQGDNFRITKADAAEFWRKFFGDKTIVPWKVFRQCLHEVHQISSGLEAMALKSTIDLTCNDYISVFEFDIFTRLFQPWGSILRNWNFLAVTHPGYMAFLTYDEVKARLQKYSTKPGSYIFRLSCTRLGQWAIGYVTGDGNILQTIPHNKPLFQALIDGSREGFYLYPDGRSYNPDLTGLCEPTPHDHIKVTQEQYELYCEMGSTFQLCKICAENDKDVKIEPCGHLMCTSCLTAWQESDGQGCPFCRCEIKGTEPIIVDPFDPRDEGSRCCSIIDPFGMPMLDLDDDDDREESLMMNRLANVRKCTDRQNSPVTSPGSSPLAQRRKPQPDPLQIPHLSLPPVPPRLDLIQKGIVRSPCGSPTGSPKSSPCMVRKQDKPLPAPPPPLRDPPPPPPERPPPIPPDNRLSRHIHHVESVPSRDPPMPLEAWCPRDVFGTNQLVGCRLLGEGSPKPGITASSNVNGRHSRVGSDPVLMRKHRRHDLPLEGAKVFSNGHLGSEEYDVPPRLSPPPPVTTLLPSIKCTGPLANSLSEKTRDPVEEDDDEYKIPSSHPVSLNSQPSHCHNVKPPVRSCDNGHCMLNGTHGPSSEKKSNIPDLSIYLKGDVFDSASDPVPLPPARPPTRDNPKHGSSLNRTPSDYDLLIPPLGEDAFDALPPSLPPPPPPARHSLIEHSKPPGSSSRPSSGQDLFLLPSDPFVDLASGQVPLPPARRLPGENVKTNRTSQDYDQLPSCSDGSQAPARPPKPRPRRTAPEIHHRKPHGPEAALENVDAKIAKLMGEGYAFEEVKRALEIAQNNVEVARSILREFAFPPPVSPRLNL

Compound	IC50
CC1CC(c2cccc(-c3cnc4ccc(CN5CCC[C@H](C)C5)cn4c3=O)c2)(c2nncn2C)C1 (stereo partly drawn) [Compound 1, 3-[3-[3-methyl-1-(4-methyl-4H-1,2,4-triazol-3-yl)cyclobutyl]phenyl]-7-[[(3S)-3-methyl-1-piperidyl]methyl]pyrido[1,2-a]pyrimidin-4-one]	76.6 nM
COc1cc(CN2CCC[C@H](C)C2)cn2c(=O)c(-c3cccc(C4(c5nncn5C)CC(C)C4)c3)cnc12 (stereo partly shown) [Compound 3]	296 nM
CC1CC(c2cccc(-c3cnc4c(C(F)(F)F)cc(CN5CCO[C@H](C)C5)cn4c3=O)c2)(c2nncn2C)C1 (stereo partly shown) [Compound 4]	268 nM
CC1CC(c2cccc(-c3cnc4c(Cl)cc(CN5CCC[C@H](C)C5)cn4c3=O)c2)(c2nncn2C)C1 (stereo partly shown) [Compound 10]	42.9 nM
Cc1cc(CN2CCC[C@H](C)C2)cn2c(=O)c(-c3cccc(C4(c5nncn5C)CC(C)C4)c3)cnc12 (stereo partly shown) [Compound 11]	31.2 nM
CCc1cc(CN2CCC[C@H](C)C2)cn2c(=O)c(-c3cccc(C4(c5nncn5C)CC(C)C4)c3)cnc12 (stereo partly shown) [Compound 12]	63.9 nM
CC1CC(c2cccc(-c3cnc4c(Br)cc(CN5CCC[C@H](C)C5)cn4c3=O)c2)(c2nncn2C)C1 (stereo partly shown) [Compound 14]	29.3 nM
CC1CC(c2cccc(-c3cnc4c(C(F)(F)F)cc(CN5CC6CCC5C6)cn4c3=O)c2)(c2nncn2C)C1 (stereo not shown) [Compound 17]	167 nM
CC1CC(c2cccc(-c3cnc4sc(CN5CCC[C@H](C)C5)cn4c3=O)c2)(c2nncn2C)C1 (stereo partly drawn) [Compound 59, (S)-6-(3-(3-methyl-1-(4-methyl-4H-1,2,4-triazol-3-yl)cyclobutyl)phenyl)-2-((3-methylpiperidin-1-yl)methyl)-5H-thiazolo[3,2-a]pyrimidin-5-one]	43.1 nM
C[C@H]1CCCN(Cc2cc(C(F)(F)F)c3ncc(-c4cccc(C(c5nncn5C)C5CC5)c4)c(=O)n3c2)C1 (stereo partly drawn) [Compound 63, 3-(3-(cyclopropyl(4-methyl-4H-1,2,4-triazol-3-yl)methyl)phenyl)-7-(((S)-3-methylpiperidin-1-yl)methyl)-9-trifluoromethyl-4H-pyrido[1,2-a]pyrimidin-4-one]	41.6 nM
Cc1cc(CN2CCC[C@H](C)C2)cc2c(=O)c(-c3cc(C(F)(F)F)cc(C4(c5nncn5C)CC(C)C4)c3)coc12 (stereo partly drawn) [Compound 66, (S)-8-methyl-3-(3-(3-methyl-1-(4-methyl-4H-1,2,4-triazol-3-yl)cyclobutyl)-5-trifluoromethylphenyl)-6-((3-methylpiperidin-1-yl)methyl)-4H-chromen-4-one]	88.9 nM
Cc1cc(CN2CCC[C@H](C)C2)cc2c(=O)c(-c3cccc(C4(c5nncn5C)CCO4)c3)coc12 (stereo partly drawn) [Compound 71, 8-methyl-3-(3-(2-(4-methyl-4H-1,2,4-triazol-3-yl)oxetan-2-yl)phenyl)-6-(((S)-3-methylpiperidin-1-yl)methyl)-4H-chromen-4-one]	203 nM
Cc1cc(CN2CCC[C@H](C)C2)cc2c(=O)c(-c3cccc(C4(c5nncn5C)CC(F)(F)C4)c3)coc12 [Compound 73, (S)-3-(3-(3,3-difluoro-1-(4-methyl-4H-1,2,4-triazol-3-yl)cyclobutyl)phenyl)-8-methyl-6-((3-methylpiperidin-1-yl)methyl)-4H-chromen-4-one]	64.9 nM
CC1CC(c2cccc(-c3coc4c(C5CC5)cc(CN5CCC[C@H](C)C5)cc4c3=O)c2)(c2nncn2C)C1 (stereo partly drawn) [Compound 74, (S)-8-cyclopropyl-3-(3-(3-methyl-1-(4-methyl-4H-1,2,4-triazol-3-yl)cyclobutyl)phenyl)-6-((3-methylpiperidin-1-yl)methyl)-4H-chromen-4-one]	19.1 nM
Cc1cc(CN2CCN(C)C[C@@H]2C(C)C)cc2c(=O)c(-c3cccc(C4(c5nncn5C)CC(C)C4)c3)coc12 (stereo partly shown) [Compound 88]	32.7 nM
CC1CC(c2cccc(-c3cnc4c(C(F)(F)F)cc(CN5CCN(C)C[C@@H]5C(C)C)cn4c3=O)c2)(c2nncn2C)C1 (stereo partly shown) [Compound 89]	41.6 nM

More lines, in order of falling IC50, values ahead:

IC50	Compound
450 nM	C[C@H]1CCCN(Cc2cc(C(F)(F)F)c3ncc(-c4cccc(C5(Cc6nncn6C)COC5)c4)c(=O)n3c2)C1 [Compound 5]
212 nM	Cc1cc(CN2CCC[C@H](C)C2)cc2c(=O)c(-c3cccc([C@](F)(c4nncn4C)C4CC4)c3)coc12 [Compound 120-P1]
130 nM	CC1CC(c2cccc(-c3cnc4c(F)cc(CN5CCC[C@H](C)C5)cn4c3=O)c2)(c2nncn2C)C1 (stereo partly shown) [Compound 9]
96.4 nM	Cc1cc(CN2CCC[C@H](C)C2)cc2c(=O)c(-c3cccc(C(C)(C)c4nncn4C)c3)coc12 [Compound 67, (S)-8-methyl-3-(3-(2-(4-methyl-4H-1,2,4-triazol-3-yl)propan-2-yl)phenyl)-6-((3-methylpiperidin-1-yl)methyl)-4H-chromen-4-one]
38.4 nM	Cc1cc(CN2CCC[C@H](C)C2)cc2c(=O)c(-c3cccc(C(c4nncn4C)C4CC4)c3)coc12 (stereo partly drawn) [Compound 64, 3-(3-(cyclopropyl(4-methyl-4H-1,2,4-triazol-3-yl)methyl)phenyl)-8-methyl-6-(((S)-3-methylpiperidin-1-yl)methyl)-4H-chromen-4-one]
31.9 nM	CC1CC(c2cccc(-c3cnc4c(C5CC5)cc(CN5CCC[C@H](C)C5)cn4c3=O)c2)(c2nncn2C)C1 (stereo partly shown) [Compound 13]
17.8 nM	Cc1cc(CN2CCC(F)(F)[C@H](C)C2)cc2c(=O)c(-c3cccc(C(F)(c4nncn4C)C4CC4)c3)coc12 (stereo partly drawn) [Compound 129, 3-(3-(cyclopropylfluoro(4-methyl-4H-1,2,4-triazol-3-yl)methyl)phenyl)-6-(((R)-4,4-difluoro-3-methylpiperidin-1-yl)methyl)-8-methyl-4H-chromen-4-one]
7.8 nM	Cc1cc(CN2CCC[C@H](C)C2)cc2c(=O)c(-c3cccc([C@@](F)(c4nncn4C)C4CC4)c3)coc12 [Compound 120-P2, 3-(3-((R)-cyclopropylfluoro(4-methyl-4H-1,2,4-triazol-3-yl)methyl)phenyl)-8-methyl-6-(((S)-3-methylpiperidin-1-yl)methyl)-4H-chromen-4-one]
7.4 nM	CC1CC(c2cncc(-c3coc4c(C5CC5)cc(CN5CCC[C@H](C)C5)cc4c3=O)c2)(c2nncn2C)C1 (stereo partly drawn) [Compound 75, (S)-8-cyclopropyl-3-(5-(3-methyl-1-(4-methyl-4H-1,2,4-triazol-3-yl)cyclobutyl)pyridin-3-yl)-6-((3-methylpiperidin-1-yl)methyl)-4H-chromen-4-one]
